Experimental data taken from patent publication US20250313563A1, “GLYCOGEN SYNTHASE KINASE 3 INHIBITORS AND USES THEREOF” (The Broad Institute, Inc., priority 2022, published 2025).
Like-named read-outs stand apart in the source and are kept apart here.

Assays:
[1] = Microsomal stability (MIC), mouse; assay type: in vitro ADME, mouse (CD-1); conditions: mouse liver microsomes; for half-life at 1 μM: CD-1, read-out: Microsome stability (mouse), in vitro T1/2
Procedure: (§1) Stability of compound in liver microsomes was tested in duplicate by incubating compound at 1 μM for 60 minutes at 37° C. Compound level at 60 minutes was compared to level at 0 minutes, and percent remaining was calculated. Assay Parameters
(§2) Available species: human and mouse (CD-1). Compound requirements: 5 μL of a 10 mM DMSO solution. Incubation time: 60 minutes at 37° C. Test Concentration: 1 μM.
(§3) Microsomes with NADPH without compound-matrix interference. Microsomes plus compound without NADPH—non-enzymatic instability.

[2] = molecular target: GSK3α (GST-full length GSK3α) (Homo sapiens (Human), UniProt P49840); experiment: GSK3α TR-FRET kinase assay; assay type: biochemical
Outline: (§4)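 Compound preincubated 30 min, then 1 nM GST-full-length GSK3α or GSK3b run 100 min at ambient temperature with 200 nM biotinylated, S645-prephosphorylated glycogen synthase 631-650 peptide in Tris pH 7.5, MgCl2, DTT, BSA, 1% DMSO. ATP 4 μM (α) or 2 μM (β), or 1 mM. EDTA-quenched; Tb-anti-pSer641/streptavidin-d2 TR-FRET 665/615 ratio gave IC50.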

[3] = molecular target: GSK3b (GST-full length GSK3b) (Homo sapiens (Human), UniProt P49841); experiment: GSK3b TR-FRET kinase assay; assay type: biochemical
Outline: as §4

[4] = Microsomal stability (MIC), human; assay type: in vitro ADME; conditions: human liver microsomes
Procedure: as §1, §2, §3

[5] = test system: MDR1-MDCK cell monolayers; experiment: MDR1/MDCK assay (blood-brain barrier penetration potential); assay type: in vitro ADME; conditions: 5 μM, pH 7.4, 120 minutes; for MDCK permeability (MDR1-MDCK); Mean; Papp (A − B): A to B; for MDCK permeability (MDR1-MDCK); Mean; Papp (B − A): B to A
Procedure: The MDR1/MDCK assay is run at Absorption Systems. This assay is used to determine the blood-brain barrier (BBB) penetration potential of a test compound using MDR1-MDCK cell monolayers. Catalog number EA203.
• Test compound at 5 μM in HBSSg with maximum DMSO concentration not greater than 1%.
• Confluent monolayers of MDR1-MDCK cells, 7 to 11 days old.
• Receiver well with 1% BSA in modified Hanks buffer (HBSSg) • Apical and basolateral side at pH 7.4 • Dose two monolayers in each direction (N=2) • Dose apical side for (A to B) assessment • Dose basolateral side for (B to A) assessment • Sample both apical and basolateral sides at 120 minutes • Determine the concentrations of test compound using a generic LC-MS/MS method with a minimum 4 point calibration curve.
• The quality of the cell monolayer batch is verified using control compounds before monolayers are released for use • The quality of each monolayer used in the assay is verified by a TEER measurement and by calculating the Papp for a control compound.

[6] = GSK3-A (TR-FRET 1 mM ATP), GMean, IC50, 1 mM ATP, geometric mean
[7] = GSK3-B (TR-FRET 1 mM ATP), GMean, IC50, 1 mM ATP, geometric mean
[8] = read-out: GSK3-A (TR-FRET 1 mM ATP), GMean, IC50, 1 mM ATP, geometric mean
[9] = read-out: GSK3-B (TR-FRET 1 mM ATP), GMean, IC50, 1 mM ATP, geometric mean

Sequence of GSK3α (GST-full length GSK3α) (P49840 whole entry): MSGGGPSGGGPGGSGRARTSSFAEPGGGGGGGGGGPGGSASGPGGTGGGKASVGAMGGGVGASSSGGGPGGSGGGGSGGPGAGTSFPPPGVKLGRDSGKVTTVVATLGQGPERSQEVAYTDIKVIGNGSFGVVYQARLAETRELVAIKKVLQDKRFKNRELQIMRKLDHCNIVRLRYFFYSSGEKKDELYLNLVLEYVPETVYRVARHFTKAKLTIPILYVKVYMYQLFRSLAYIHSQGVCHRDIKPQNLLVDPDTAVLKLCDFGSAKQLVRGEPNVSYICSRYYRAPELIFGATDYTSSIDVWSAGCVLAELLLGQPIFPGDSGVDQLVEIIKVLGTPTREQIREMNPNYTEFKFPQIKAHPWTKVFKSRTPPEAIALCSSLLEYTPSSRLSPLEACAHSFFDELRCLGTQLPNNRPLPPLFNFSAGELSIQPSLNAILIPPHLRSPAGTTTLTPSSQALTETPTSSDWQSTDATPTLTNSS
Sequence of GSK3b (GST-full length GSK3b) (P49841 whole entry): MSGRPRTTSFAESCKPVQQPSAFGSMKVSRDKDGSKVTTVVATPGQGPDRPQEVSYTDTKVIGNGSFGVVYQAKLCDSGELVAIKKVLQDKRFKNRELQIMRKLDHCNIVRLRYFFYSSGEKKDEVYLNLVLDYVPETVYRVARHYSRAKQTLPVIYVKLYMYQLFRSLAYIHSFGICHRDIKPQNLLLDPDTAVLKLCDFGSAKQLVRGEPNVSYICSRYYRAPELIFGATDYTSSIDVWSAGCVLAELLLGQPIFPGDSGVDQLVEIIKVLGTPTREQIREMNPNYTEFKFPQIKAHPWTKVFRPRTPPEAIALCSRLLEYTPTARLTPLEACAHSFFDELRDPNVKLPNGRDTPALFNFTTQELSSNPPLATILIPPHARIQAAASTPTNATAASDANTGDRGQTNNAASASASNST

CC1(C)CC(=O)C2=C(C1)Nc1n[nH]c(C3CC3)c1C21CN(S(=O)(=O)CC2CC2)C1 [Compound 109152]
half-life at 1 μM [1]: 0.97 min
IC50 [2, 6]: 100 to 1000 nM
IC50 [3, 7]: 100 to 1000 nM

CN1CC2(C3=C(CC(C)(C)CC3=O)Nc3n[nH]c(CC(C)(C)C)c32)c2ccccc21 (centres unmarked) [Compound 125978]
Microsome stability (human); in vitro T1/2 [4]: 0.6 min
Microsome stability (mouse); in vitro T1/2 [1]: 0.6 min
IC50 [2, 8]: 1000 to 5000 nM
MDCK permeability (MDR1-MDCK); Mean; Papp Ratio (B − A/A − B) (efflux ratio) [5]: 7.49
MDCK permeability (MDR1-MDCK); Mean; Papp (A − B) [5]: 10.8 10^−6 cm/s
MDCK permeability (MDR1-MDCK); Mean; Papp (B − A) [5]: 81.2 10^−6 cm/s
IC50 [3, 9]: 100 to 1000 nM

COc1cncc(F)c1-c1cccc([C@]2(C)C3=C(CC(C)(C)CC3=O)Nc3n[nH]c(CC(C)(C)C)c32)c1 [Compound 108954]
half-life at 1 μM [1]: 8.59 min
IC50 [2, 6]: 1000 to 5000 nM
IC50 [3, 7]: 100 to 1000 nM

C[S+]([O-])c1cccc(C2(C)C3=C(CC(C)(C)CC3=O)Nc3n[nH]c(CC(C)(C)C)c32)c1 (centres unmarked) [Compound 126190]
IC50 [2, 8]: 1000 to 5000 nM
MDCK permeability (MDR1-MDCK); Mean; Papp Ratio (B − A/A − B) (efflux ratio) [5]: 199
MDCK permeability (MDR1-MDCK); Mean; Papp (A − B) [5]: 0.08 10^−6 cm/s
MDCK permeability (MDR1-MDCK); Mean; Papp (B − A) [5]: 15.7 10^−6 cm/s
IC50 [3, 9]: 100 to 1000 nM

CC(C)(C)Cc1[nH]nc2c1C(C)(c1cccc(S(C)(=O)=O)c1)C1=C(CC(C)(C)CC1=O)N2 (centres unmarked) [Compound 114687]
Microsome stability (human); in vitro T1/2 [4]: 12.3 min
Microsome stability (mouse); in vitro T1/2 [1]: 6.4 min
IC50 [2, 8]: 100 to 1000 nM
IC50 [3, 9]: ≤ 100 nM

Cn1cc(-c2cccc(C3(C)C4=C(CC(C)(C)CC4=O)Nc4n[nH]c(CC(C)(C)C)c43)c2)cn1 (centres unmarked) [Compound 126393]
IC50 [2, 8]: 1000 to 5000 nM
MDCK permeability (MDR1-MDCK); Mean; Papp Ratio (B − A/A − B) (efflux ratio) [5]: 92.5
MDCK permeability (MDR1-MDCK); Mean; Papp (A − B) [5]: 0.59 10^−6 cm/s
MDCK permeability (MDR1-MDCK); Mean; Papp (B − A) [5]: 54.5 10^−6 cm/s
IC50 [3, 9]: 100 to 1000 nM

Cn1cncc1-c1cccc(C2(C)C3=C(CC(C)(C)CC3=O)Nc3n[nH]c(CC(C)(C)C)c32)c1 (centres unmarked) [Compound 126014]
IC50 [2, 8]: 100 to 1000 nM
MDCK permeability (MDR1-MDCK); Mean; Papp Ratio (B − A/A − B) (efflux ratio) [5]: 187
MDCK permeability (MDR1-MDCK); Mean; Papp (A − B) [5]: 0.17 10^−6 cm/s
MDCK permeability (MDR1-MDCK); Mean; Papp (B − A) [5]: 32.1 10^−6 cm/s
IC50 [3, 9]: 100 to 1000 nM

CN(C)S(=O)(=O)c1cccc(C2(C)C3=C(CC(C)(C)CC3=O)Nc3n[nH]c(CC(C)(C)C)c32)c1 (centres unmarked) [Compound 126012]
IC50 [2, 8]: 1000 to 5000 nM
MDCK permeability (MDR1-MDCK); Mean; Papp Ratio (B − A/A − B) (efflux ratio) [5]: 120
MDCK permeability (MDR1-MDCK); Mean; Papp (A − B) [5]: 0.47 10^−6 cm/s
MDCK permeability (MDR1-MDCK); Mean; Papp (B − A) [5]: 56.2 10^−6 cm/s
IC50 [3, 9]: 100 to 1000 nM

Cc1[nH]nc2c1C1(CN(S(=O)(=O)CC3CC3)C1)C1=C(CC(C)(C)CC1=O)N2 [Compound 107828]
half-life at 1 μM [1]: 6.49 min
IC50 [2, 6]: ≤ 100 nM
IC50 [3, 7]: 100 to 1000 nM

CC(C)(C)Cc1[nH]nc2c1C(C)(c1cc(S(C)(=O)=O)ccc1F)C1=C(CC(C)(C)CC1=O)N2 (centres unmarked) [Compound 125976]
Microsome stability (human); in vitro T1/2 [4]: 26.2 min
Microsome stability (mouse); in vitro T1/2 [1]: 36 min
IC50 [2, 8]: 1000 to 5000 nM
MDCK permeability (MDR1-MDCK); Mean; Papp Ratio (B − A/A − B) (efflux ratio) [5]: 301
MDCK permeability (MDR1-MDCK); Mean; Papp (A − B) [5]: 0.2 10^−6 cm/s
MDCK permeability (MDR1-MDCK); Mean; Papp (B − A) [5]: 61.2 10^−6 cm/s
IC50 [3, 9]: 100 to 1000 nM

Cc1ccc(S(C)(=O)=O)cc1C1(C)C2=C(CC(C)(C)CC2=O)Nc2n[nH]c(CC(C)(C)C)c21 (centres unmarked) [Compound 126397]
Microsome stability (human); in vitro T1/2 [4]: 104.9 min
Microsome stability (mouse); in vitro T1/2 [1]: >145 min
IC50 [2, 8]: 1000 to 5000 nM
IC50 [3, 9]: ≤ 100 nM

CC(C)(C)Cc1[nH]nc2c1C(C)(c1cccc(S(=O)(=O)CC3CC3)c1)C1=C(CC(C)(C)NC1=O)N2 (centres unmarked) [Compound 108005]
Microsome stability (mouse); in vitro T1/2 [1]: 0.69 min
IC50 [2, 8]: 100 to 1000 nM
IC50 [3, 9]: 100 to 1000 nM

CC(C)(C)Cc1[nH]nc2c1C1(CN(S(=O)(=O)CC3CC3)C1)C1=C(CC3(CCC3)CC1=O)N2 [Compound 107829]
Microsome stability (human); in vitro T1/2 [4]: 8.877 min
Microsome stability (mouse); in vitro T1/2 [1]: 2.084 min
IC50 [2, 8]: 1000 to 5000 nM
IC50 [3, 9]: 100 to 1000 nM

CN1CC2(C3=C(CC(C)(C)CC3=O)Nc3n[nH]c(C4CC(F)(F)C4)c32)c2ccccc21 (centres unmarked) [Compound 119048]
Microsome stability (human); in vitro T1/2 [4]: 1.4 min
Microsome stability (mouse); in vitro T1/2 [1]: 0.5 min
IC50 [2, 8]: 1000 to 5000 nM
MDCK permeability (MDR1-MDCK); Mean; Papp Ratio (B − A/A − B) (efflux ratio) [5]: 42.3
MDCK permeability (MDR1-MDCK); Mean; Papp (A − B) [5]: 1.65 10^−6 cm/s
MDCK permeability (MDR1-MDCK); Mean; Papp (B − A) [5]: 70 10^−6 cm/s
IC50 [3, 9]: 100 to 1000 nM

CC1(C)CC(=O)C2=C(C1)Nc1n[nH]c(C3CC(F)(F)C3)c1C21COc2ccccc21 (centres unmarked) [Compound 127430]
Microsome stability (human); in vitro T1/2 [4]: >145 min
Microsome stability (mouse); in vitro T1/2 [1]: 74.5 min
IC50 [2, 8]: 1000 to 5000 nM
IC50 [3, 9]: 100 to 1000 nM

CC(C)(C)Cc1[nH]nc2c1C(C)(c1cccc(N3CCOCC3)c1)C1=C(CC(C)(C)CC1=O)N2 (centres unmarked) [Compound 126400]
IC50 [2, 8]: 1000 to 5000 nM
MDCK permeability (MDR1-MDCK); Mean; Papp Ratio (B − A/A − B) (efflux ratio) [5]: 119
MDCK permeability (MDR1-MDCK); Mean; Papp (A − B) [5]: 0.41 10^−6 cm/s
MDCK permeability (MDR1-MDCK); Mean; Papp (B − A) [5]: 48.9 10^−6 cm/s
IC50 [3, 9]: 100 to 1000 nM

CC(C)(C)Cc1[nH]nc2c1C(C)(c1cccc(S(=O)(=O)C(F)(F)F)c1)C1=C(CC(C)(C)CC1=O)N2 (centres unmarked) [Compound 126395]
IC50 [2, 8]: 1000 to 5000 nM
MDCK permeability (MDR1-MDCK); Mean; Papp Ratio (B − A/A − B) (efflux ratio) [5]: 8.9
MDCK permeability (MDR1-MDCK); Mean; Papp (A − B) [5]: 6.48 10^−6 cm/s
MDCK permeability (MDR1-MDCK); Mean; Papp (B − A) [5]: 57.6 10^−6 cm/s
IC50 [3, 9]: 100 to 1000 nM

CCC1(c2cccc(-c3cnn(C)c3C)c2)C2=C(CC(C)(C)CC2=O)Nc2n[nH]c(C)c21 (centres unmarked) [Compound 913045]
IC50 [2, 8]: ≤ 100 nM
IC50 [3, 9]: 100 to 1000 nM

CCn1ccc(S(=O)(=O)N2CCC3(CC2)C2=C(CC(C)(C)CC2=O)Nc2n[nH]cc23)n1 [Compound 945671]
IC50 ([2]; 1 nM GSK3α, 4 μM ATP, 30 minute preincubation, Table 16, read-out: GSK3-A TR-FRET BIOCHEMICAL (TR-FRET)): ≤ 100 nM
IC50 ([3]; 1 nM GSK3b, 2 μM ATP, 30 minute preincubation, Table 16, read-out: GSK3-B TR-FRET BIOCHEMICAL (TR-FRET)): ≤ 100 nM
